The results in this text go back to patent US20250034170A1, “SMALL MOLECULE MODULATORS OF GLUCOCEREBROSIDASE ACTIVITY AND USES THEREOF” (Vanqua Bio, Inc., priority 2021, published 2025).

Each structure is given as a SMILES string.

The target of the experiment is T1, GCase (Homo sapiens, UniProt P04062).
T1 construct: endogenous in cells; host or cells: HeLa cells
T1 sequence (P04062 40-536): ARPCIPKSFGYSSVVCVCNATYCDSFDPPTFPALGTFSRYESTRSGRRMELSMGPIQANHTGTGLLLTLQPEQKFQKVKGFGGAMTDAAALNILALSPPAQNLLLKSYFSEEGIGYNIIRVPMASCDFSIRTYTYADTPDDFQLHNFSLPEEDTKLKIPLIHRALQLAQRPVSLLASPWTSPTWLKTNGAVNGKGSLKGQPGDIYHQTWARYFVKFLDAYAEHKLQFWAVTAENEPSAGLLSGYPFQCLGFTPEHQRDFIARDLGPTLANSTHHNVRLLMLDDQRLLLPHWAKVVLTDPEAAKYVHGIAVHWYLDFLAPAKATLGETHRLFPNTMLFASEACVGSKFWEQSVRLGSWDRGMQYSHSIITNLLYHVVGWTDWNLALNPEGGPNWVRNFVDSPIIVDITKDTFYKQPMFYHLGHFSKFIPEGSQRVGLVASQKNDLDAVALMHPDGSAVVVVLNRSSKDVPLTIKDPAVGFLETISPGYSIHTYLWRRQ
Nature of the experiment: activation of GCase in a live cell PFB assay in HELA cells. The experiment is classed as cell-based. As to conditions: activation of GCase, EC50 ranges. The method, then:
Exemplary compounds were evaluated for activation of GCase in a live cell PFB assay in HELA cells (essentially as described in Ysselstein et al., “LRRK2 kinase activity regulates lysosomal glucocerebrosidase in neurons derived from Parkinson's disease patients” Nature Communications (2019) 10:5570). […] EC50 ranges: A: <10 μM; B: >10-50 μM; C: >50-100 μM; D: >100 μM.
Turning to `CCN1C(=O)N(c2ccnc(C(F)(F)F)n2)C(=O)C12CCN(c1cnc3cnn(C4COC4)c3n1)CC2` [Cmpd 909], the EC50 is 10 to 50 µM. Under `O=C1CC2(CCN1c1ccc(C(F)(F)F)nc1)CN(c1cnc3cnn(CC(F)F)c3n1)C2` [Cmpd 910] stands 10 to 50 µM. In the case of `O=C1CC2(CCN1c1cnc3cnn(CC(F)F)c3n1)CN(c1ccc(C(F)(F)F)cn1)C2` [Cmpd 911] it was 10 to 50 µM; in that of `O=C1CC2(CCN1c1ccc(C(F)(F)F)cn1)CN(c1cnc3cnn(CC(F)F)c3n1)C2` [Cmpd 912], 10 to 50 µM; in that of `O=C1CC2(CCN1c1cnc3cnn(CC(F)F)c3n1)CN(c1ccc(C(F)(F)F)nc1)C2` [Cmpd 913], 10 to 50 µM.

The compound `CC(c1cnc(C(F)(F)F)nc1)N1CC2(CCN(c3cnc4cnn(CC(F)F)c4n3)CC2)CC1=O` (stereo not drawn) [Cmpd 914] yielded an EC50 of 10 to 50 µM. Compound `O=C1CC2(CCN(c3cnc4cnn(CC(F)F)c4n3)CC2)CN1Cc1ccnc(C(F)(F)F)n1` [Cmpd 915] displayed an EC50 of less than 10 µM. In the case of `O=C1CC2(CCN(c3ncc4cnn(CC(F)F)c4n3)CC2)CN1c1cnc(C(F)(F)F)nc1` [Cmpd 916] it was less than 10 µM. In the case of `O=C1CC2(CCN(c3ncc4cnn(CC(F)F)c4n3)CC2)CN1Cc1cnc(C(F)(F)F)nc1` [Cmpd 917] it was 50 to 100 µM.

Turning to `O=C1CC2(CCN(c3cnc4cnn(CC(F)F)c4n3)CC2)CN1Cc1ccc(OC(F)(F)F)nc1` [Cmpd 918], the EC50 was 10 to 50 µM. As for `O=C1CC2(CCN(c3cnc4cnn(CC(F)F)c4n3)CC2)CN1Cc1ccnc(OC(F)F)c1` [Cmpd 919], the EC50 is less than 10 µM. Turning to `O=C1CC2(CCN(c3ncc4cnn(CC(F)F)c4n3)CC2)CN1c1ccc(OCC(F)(F)F)nc1` [Cmpd 921], the EC50 fell in the range of 10 to 50 µM. On to `Cn1c(N2CCC3(CC2)CC(=O)N(c2cc(C(F)(F)F)ccn2)C3)nc2c(cnn2CC(F)F)c1=O` [Cmpd 922], for which the EC50 was less than 10 µM. In the case of `Cn1c(N2CCC3(CC2)CC(=O)N(c2ccnc(C(F)(F)F)c2)C3)nc2c(cnn2CC(F)F)c1=O` [Cmpd 923] it was less than 10 µM; in that of `FC(F)(F)Cn1ncc2ncc(N3CCC4(CN(c5ccnc(C(F)(F)F)c5)C4)C3)nc21` [Cmpd 924], less than 10 µM; in that of `Cn1c(N2CCC3(CC2)CC(=O)N(c2ccc(C(F)(F)F)nc2)C3)nc2c(cnn2CC(F)F)c1=O` [Cmpd 925], 10 to 50 µM.

Consider `Cn1c(N2CCC3(CC2)CC(=O)N(Cc2cnc(C(F)(F)F)nc2)C3)nc2c(cnn2CC(F)F)c1=O` [Cmpd 926], for which the EC50 lay within 10 to 50 µM. `O=C1N(Cc2cnc(C(F)(F)F)cn2)CCC12CCN(c1cnc3cnn(CC(F)F)c3n1)CC2` [Cmpd 927] gave an EC50 of 10 to 50 µM. Take `Cc1ncc(C(F)(F)F)nc1N1CCC2(CCN(c3cnc4cnn(CC(F)F)c4n3)CC2)C1=O` [Cmpd 928]: the EC50 fell in the range of 10 to 50 µM. `COc1cc(N2CC3(CCN(c4cnc5cnn(CC(F)F)c5n4)C3)C2)ccn1` [Cmpd 929]: the EC50 fell in the range of 10 to 50 µM. Compound `O=C1CC2(CCN(c3cnc4cnn(CC(F)F)c4n3)CC2)CN1Cc1cnc(C(F)(F)F)cn1` [Cmpd 930] registered an EC50 of 10 to 50 µM.

On to `Cc1nn(C2COC2)c2nc(N3CCC4(CN(c5ccnc(C(F)(F)F)c5)C4)C3)cnc12` [Cmpd 931], for which the EC50 was 10 to 50 µM.

`Cc1nn(C2COC2)c2nc(N3CCC4(CN(c5ccnc(C(F)(F)F)c5)C4)C3)ncc12` [Cmpd 932] gave an EC50 of 10 to 50 µM. `FC(F)(F)c1cc(N2CC3(CCN(c4cnc5cnn(C[C@@H]6CCO6)c5n4)C3)C2)ccn1` [Cmpd 933] yielded an EC50 of less than 10 µM. `FC(F)(F)c1cc(N2CC3(CCN(c4cnc5cnn(C[C@H]6CCO6)c5n4)C3)C2)ccn1` [Cmpd 934] returned an EC50 of less than 10 µM. In the case of `CCOc1nn(CC(F)F)c2nc(N3CCC4(CN(c5cc(C(F)(F)F)nc(C)n5)C4)C3)cnc12` [Cmpd 935] it was 50 to 100 µM; in that of `COc1nn(CC(F)F)c2nc(N3CCC4(CN(c5ccnc(C(F)(F)F)c5)C4)C3)cnc12` [Cmpd 936], less than 10 µM; in that of `CCOc1nn(CC(F)F)c2nc(N3CCC4(CN(c5ccnc(C(F)(F)F)c5)C4)C3)cnc12` [Cmpd 937], less than 10 µM. In the case of `COc1nn(CC(F)F)c2nc(N3CCC4(CN(c5ccnc(C(F)(F)F)c5)C4)C3)ncc12` [Cmpd 938] it was 10 to 50 µM; in that of `CCOc1nn(CC(F)F)c2nc(N3CCC4(CN(c5ccnc(C(F)(F)F)c5)C4)C3)ncc12` [Cmpd 939], less than 10 µM; in that of `COc1nn(CC(F)F)c2nc(N3CCC4(CC3)CC(=O)N(c3ccnc(C(F)(F)F)c3)C4)cnc12` [Cmpd 940], less than 10 µM.

For `CCOc1nn(CC(F)F)c2nc(N3CCC4(CC3)CC(=O)N(c3ccnc(C(F)(F)F)c3)C4)cnc12` [Cmpd 941], the EC50 was less than 10 µM. `COc1nn(CC(F)F)c2nc(N3CCC4(CC3)CC(=O)N(c3nccc(C(F)(F)F)n3)C4)cnc12` [Cmpd 942] returned an EC50 of 10 to 50 µM.

The compound `COc1nn(C2COC2)c2nc(N3CCC4(CN(c5ccnc(C(F)(F)F)c5)C4)C3)cnc12` [Cmpd 943] yielded an EC50 of less than 10 µM.

For `CCOc1nn(C2COC2)c2nc(N3CCC4(CN(c5ccnc(C(F)(F)F)c5)C4)C3)cnc12` [Cmpd 944], the EC50 is less than 10 µM. In the case of `COc1nn(C2COC2)c2nc(N3CCC4(CN(c5ccnc(C(F)(F)F)c5)C4)C3)ncc12` [Cmpd 945] it was 10 to 50 µM; in that of `CCOc1nn(C2COC2)c2nc(N3CCC4(CN(c5ccnc(C(F)(F)F)c5)C4)C3)ncc12` [Cmpd 946], 10 to 50 µM; in that of `CCOc1nn(CC(F)F)c2nc(N3CCC4(CC3)CC(=O)N(c3ccc(C(F)(F)F)nc3)C4)cnc12` [Cmpd 947], less than 10 µM. `COc1nn(CC(F)F)c2nc(N3CCC4(CC3)CC(=O)N(c3ccc(C(F)(F)F)nc3)C4)ncc12` [Cmpd 948] came in with an EC50 of 10 to 50 µM. In the case of `CCOc1nn(CC(F)F)c2nc(N3CCC4(CC3)CC(=O)N(c3ccc(C(F)(F)F)nc3)C4)ncc12` [Cmpd 949] it was 10 to 50 µM. Under `COc1nn(C2COC2)c2nc(N3CCC4(CC3)CC(=O)N(c3ccc(C(F)(F)F)nc3)C4)cnc12` [Cmpd 950] stands more than 100 µM; under `CCOc1nn(C2COC2)c2nc(N3CCC4(CC3)CC(=O)N(c3ccc(C(F)(F)F)nc3)C4)cnc12` [Cmpd 951], less than 10 µM. The compound `COc1nn(C2COC2)c2nc(N3CCC4(CC3)CC(=O)N(c3ccc(C(F)(F)F)nc3)C4)ncc12` [Cmpd 952] displayed an EC50 of 10 to 50 µM. Compound `CCOc1nn(C2COC2)c2nc(N3CCC4(CC3)CC(=O)N(c3ccc(C(F)(F)F)nc3)C4)ncc12` [Cmpd 953] had an EC50 of 10 to 50 µM.

`O=C1CC2(CCN(c3cnc4cnn(CC(F)F)c4n3)CC2)C(CCF)N1c1ccnc(C(F)(F)F)c1` (stereo not drawn) [Cmpd 954]: the EC50 was in the range of 10 to 50 µM. In the case of `O=C1CC2(CCN(c3cnc4cnn(CC(F)F)c4n3)CC2)C(CC(F)F)N1c1ccnc(C(F)(F)F)c1` (stereo not drawn) [Cmpd 955] it was less than 10 µM; in that of `Cc1cnc(C(F)(F)F)nc1N1CC2(CCN(c3cnc4cnn(CC(F)F)c4n3)CC2)CC1=O` [Cmpd 956], more than 100 µM; in that of `Cc1nc(C(F)(F)F)ncc1N1CC2(CCN(c3cnc4cnn(CC(F)F)c4n3)C2)C1` [Cmpd 957], 10 to 50 µM. In the case of `FC(F)Cn1ncc2ncc(N3CCC4(CN(c5cnc(C(F)F)nc5)C4)C3)nc21` [Cmpd 958] it was less than 10 µM; in that of `Cc1nc(OCC(F)(F)F)ncc1N1CC2(CCN(c3cnc4cnn(CC(F)F)c4n3)C2)C1` [Cmpd 959], 10 to 50 µM. In the case of `FC(F)Cn1ncc2ncc(N3CCC4(CN(c5ccnc(OCC(F)(F)F)n5)C4)C3)nc21` [Cmpd 960] it was 10 to 50 µM; in that of `Cc1cnc(C(F)(F)F)nc1N1CC2(CCN(c3cnc4cnn(CC(F)F)c4n3)C2)C1` [Cmpd 961], 10 to 50 µM. As to `FC(F)(F)c1cc(N2CC3(CCN(c4ncc5cnn(C6COC6)c5n4)C3)C2)ccn1` [Cmpd 962], the EC50 lay in the range of 10 to 50 µM.

As for `O=C1CC2(CCN(c3cnc4cnn(CC(F)F)c4n3)CC2)CN1Cc1ncc(C(F)(F)F)cc1F` [Cmpd 963], the EC50 is less than 10 µM. In the case of `CC(c1ccc(C(F)(F)F)cn1)N1CC2(CCN(c3cnc4cnn(CC(F)F)c4n3)CC2)CC1=O` (stereo not drawn) [Cmpd 964] it was less than 10 µM; in that of `CC(c1ccc(C(F)(F)F)nc1)N1CC2(CCN(c3cnc4cnn(CC(F)F)c4n3)CC2)CC1=O` (stereo not drawn) [Cmpd 965], 10 to 50 µM. Take `O=C1CC2(CCN(c3cnc4cnn(CC(F)F)c4n3)CC2)CN1Cc1ccnc(C(F)(F)F)c1F` [Cmpd 966]: the EC50 was less than 10 µM. Under `CC(c1ccc(Cl)cn1)N1CC2(CCN(c3cnc4cnn(CC(F)F)c4n3)CC2)CC1=O` (stereo not drawn) [Cmpd 967] stands less than 10 µM; under `CC(c1cncc(Cl)c1)N1CC2(CCN(c3cnc4cnn(CC(F)F)c4n3)CC2)CC1=O` (stereo not drawn) [Cmpd 968], less than 10 µM; under `CC(c1ccnc(C(F)(F)F)c1)N1CC2(CCN(c3cnc4cnn(CC(F)F)c4n3)CC2)CC1=O` (stereo not drawn) [Cmpd 969], less than 10 µM. Under `COc1nccc(CN2CC3(CCN(c4cnc5cnn(CC(F)F)c5n4)CC3)CC2=O)n1` [Cmpd 970] stands 50 to 100 µM; under `O=C1CC2(CCN(c3cnc4cnn(CC(F)F)c4n3)CC2)CN1Cc1ccnc(OCC(F)(F)F)n1` [Cmpd 971], less than 10 µM; under `Cc1cc(CN2CC3(CCN(c4cnc5cnn(CC(F)F)c5n4)CC3)CC2=O)on1` [Cmpd 972], 10 to 50 µM.
